From patent publication US9174995B2, “Pyrrolotriazinone derivatives” (Merck Patent GmbH, priority 2012, dated 2015)

What was measured:
[1] = target: T1, GST-tagged Tnks-1 (1023-1327 aa) (Homo sapiens, UniProt O95271); assay: TNKS1 activity ELISA (autoparsylation assay); assay type: biochemical
T1 construct: GST-tagged Tnks-1 (1023-1327 aa, prepared in-house); made in house
Experimental: Description of the TNKS1 and TNKS2 ELISA Assay
Biochemical Activity Testing of TNKS 1 and 2: Activity ELISA (Autoparsylation Assay)
For analysis of autoparsylation activity of TNKS 1 and 2 an activity ELISA is performed: In the first step GST tagged TNKS is captured on a Glutathione coated plate. Then the activity assay with biotinylated NAD is performed in the absence/presence of the compounds. During the enzymatic reaction GST tagged TNKS transfers biotinylated ADP-ribose to itself from biotinylated NAD as co-substrate. For the detection streptavidin-HRP conjugate is added that binds to the biotinylated TNKS and is thereby captured to the plates. The amount of biotinylated resp. autoparsylated TNKS is detected with a luminescence substrate for HRP. The level of the luminescence signal correlats directly with the amount of autoparsylated TNKS and therefore with activity of TNKS.
The activity ELISA is performed in 384 well Glutathione coated microtiter plates (Express capture Glutathione coated plate, Biocat, Heidelberg, Germany). The plates are pre-equilibrated with PBS. Then the plates are incubated with 50 μl 20 ng/well GST-tagged Tnks-1 (1023-1327 aa, prepared in-house), respectively GST-tagged Tnks-2 (873-1166 aa, prepared in-house) in assay buffer (50 mM HEPES, 4 mM Mg-chloride, 0.05% Pluronic F-68, 2 mM DTT, pH 7.7) overnight at 4° C. The plates are washed 3 times with PBS-Tween-20. The wells are blocked by incubation at room temperature for 20 minutes with 50 μl blocking buffer (PBS, 0.05% Tween-20, 0.5% BSA). Afterwards the plates are washed 3 times with PBS-Tween-20. The enzymatic reaction is performed in 50 μl reaction solution (50 mM HEPES, 4 mM Mg-chloride, 0.05% Pluronic F-68, 1.4 mM DTT, 0.5% DMSO, pH 7.7) with 10 μM bio-NAD (Biolog, Life science Inst., Bremen, Germany) as co-substrate in the absence or presence of the test compound (10 dilution concentrations) for 1 hour at 30° C. The reaction is stopped by 3 times washing with PBS-Tween-20. For the detection 50 μl of 20 ng/μl Streptavidin, HRP conjugate (MoBiTec, Göttingen, Germany) in PBS/0.05%Tween-20/0.01%BSA are added and the plates are incubated for 30 minutes at room temperature. After three times washing with PBS-Tween-20 50 μl of SuperSignal ELISA Femto Maximum sensitivity substrate solution (ThermoFisherScientific (Pierce), Bonn, Germany) are added. Following a 1 minute incubation at room temperature luminescence signals are measured with an Envision multimode reader (Perkin Elmer LAS Germany GmbH) at 700 nm. The full value used is the inhibitor-free reaction. The pharmacological zero value used is XAV-939 (Tocris) in a final concentration of 5 μM. The inhibitory values (IC50) are determined using either the program Symyx Assay Explorer® or Condosseo® from GeneData.

His-tagged Parp-1 = target: T2, His-tagged Parp-1 (Homo sapiens, UniProt P09874); assay: PARP-1 autoparsylation assay (HTRF); assay type: biochemical; settings: PARP-1 autoparsylation HTRF assay
T2 construct: purchased Enzo Life Sciences GmbH, Lörrach, Germany
T2 sequence (P09874 whole entry): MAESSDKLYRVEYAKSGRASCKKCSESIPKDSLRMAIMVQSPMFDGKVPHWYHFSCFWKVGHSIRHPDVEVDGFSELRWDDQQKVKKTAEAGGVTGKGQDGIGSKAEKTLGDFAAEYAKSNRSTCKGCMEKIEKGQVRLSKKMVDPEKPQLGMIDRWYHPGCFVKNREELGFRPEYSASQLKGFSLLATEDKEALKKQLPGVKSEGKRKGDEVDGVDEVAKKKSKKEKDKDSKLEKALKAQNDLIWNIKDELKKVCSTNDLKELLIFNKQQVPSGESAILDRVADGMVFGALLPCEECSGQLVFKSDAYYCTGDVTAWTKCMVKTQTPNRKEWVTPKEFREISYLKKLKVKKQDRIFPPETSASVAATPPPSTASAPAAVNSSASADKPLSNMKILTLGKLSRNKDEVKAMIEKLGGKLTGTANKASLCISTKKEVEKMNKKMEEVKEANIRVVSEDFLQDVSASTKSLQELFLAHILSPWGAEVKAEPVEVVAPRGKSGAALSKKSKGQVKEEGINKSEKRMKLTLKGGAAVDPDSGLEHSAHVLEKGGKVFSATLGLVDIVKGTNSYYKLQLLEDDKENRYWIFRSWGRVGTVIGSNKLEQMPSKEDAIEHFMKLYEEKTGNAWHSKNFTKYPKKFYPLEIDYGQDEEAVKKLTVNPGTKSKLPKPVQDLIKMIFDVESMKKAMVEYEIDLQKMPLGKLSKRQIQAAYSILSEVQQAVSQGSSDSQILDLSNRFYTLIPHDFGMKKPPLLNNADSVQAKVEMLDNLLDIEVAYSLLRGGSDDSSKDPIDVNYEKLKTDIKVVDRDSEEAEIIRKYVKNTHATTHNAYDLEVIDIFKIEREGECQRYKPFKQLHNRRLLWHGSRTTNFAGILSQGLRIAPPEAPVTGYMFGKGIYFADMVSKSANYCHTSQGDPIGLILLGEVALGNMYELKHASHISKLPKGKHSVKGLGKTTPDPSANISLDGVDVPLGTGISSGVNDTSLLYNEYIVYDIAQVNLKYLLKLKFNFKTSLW
Description: Description of the PARP1 Assay
Biochemical Activity Testing of PARP-1: Autoparsylation Assay
The autoparsylation assay is run in two steps: the enzymatic reaction in which His-tagged Parp-1 transfers biotinylated ADP-ribose/ADP-ribose to itself from biotinylated NAD/NAD as co-substrate and the detection reaction where a time resolved FRET between cryptate labelled anti-His antibody bound to the His tag of the enzyme and Xlent® labelled-streptavidin bound the biotin-parsylation residue is analysed. The autoparsylation activity is detectable directly via the increase in HTRF signal.
The autoparsylation assay is performed as 384-well HTRF® (Cisbio, Codolet, France) assay format in Greiner low volume nb 384-well microtiter plates. 35 nM His-tagged Parp-1 (human, recombinant, Enzo Life Sciences GmbH, Lörrach, Germany) and a mixture of 125 nM bio-NAD (Biolog, Life science Inst., Bremen, Germany) and 800 nM NAD as co-substrate are incubated in a total volume of 6 μl (100 mM Tris/HCl, 4 mM Mg-chloride, 0.01% IGEPAL® CA630, 1 mM DTT, 0.5% DMSO, pH 8, 13 ng/μl activated DNA (BPS Bioscience, San Diego, US)) in the absence or presence of the test compound (10 dilution concentrations) for 150 min at 23° C. The reaction is stopped by the addition of 4 μl of the Stop/detection solution (70 nM SA-Xlent® (Cisbio, Codolet, France), 2.5 nM Anti-His-K® (Eu-labelled anti-His, Cisbio, Codolet, France) in 50 mM HEPES, 400 mM KF, 0.1% BSA, 20 mM EDTA, pH 7.0). After 1 h incubation at room temperature the HTRF is measured with an Envision multimode reader (Perkin Elmer LAS Germany GmbH) at excitation wavelength 340 nm (laser mode) and emission wavelengths 615 nm and 665 nm. The ratio of the emission signals is determined. The full value used is the inhibitor-free reaction. The pharmacological zero value used is Olaparib (LClabs, Woburn, US) in a final concentration of 1 μM. The inhibitory values (IC50) are determined using either the program Symyx Assay Explorer® or Condosseo® from GeneData.

Tankyrases = assay: Cellular inhibition of Tankyrase: increase of Axin2 level in DLD1 cells (Luminex); assay type: cell-based; settings: 24 hours, read-out: EC50 tankyrase ½ (cell assay)
Experimental: Measurement of Cellular Inhibition of Tankyrase
Since Tankyrases have been described to modulate cellular level of Axin2 (Huang et al., 2009; Nature) the increase of Axin2 level is used as readout for determination of cellular inhibition of Tankyrases in a Luminex based assay.
Cells of the colon carcinoma cell line DLD1 are plated in 96 well plates with 1.5×10^4 cells per well. Next day, cells are treated with a serial dilution of test compound in seven steps as triplicates with a final DMSO concentration of 0.3%. After 24 hours, cells are lysed in lysis buffer (20 mM Tris/HCl pH 8.0, 150 mM NaCl, 1% NP40, 10% Glycerol) and lysates are cleared by centrifugation through a 96 well filter plate (0.65 μm). Axin2 protein is isolated from cell lysates by incubation with a monoclonal anti-Axin2 antibody (R&D Systems #MAB6078) that is bound to fluorescent carboxybeads. Then, bound Axin2 is specifically detected with a polyclonal anti-Axin2 antibody (Cell Signaling #2151) and an appropriate PE-fluorescent secondary antibody. The amount of isolated Axin2 protein is determined in a Luminex^200 machine (Luminex Corporation) according to the manufacturer's instruction by counting 100 events per well. Inhibition of Tankyrase by test compounds results in higher levels of Axin2 which directly correlates with an increase of detectable fluorescence. As controls cells are treated with solvent alone (neutral control) and with a Tankyrase reference inhibitor IWR-2 (3E-06 M) which refers as control for maximum increase of Axin2. For analysis, the obtained data are normalized against the untreated solvent control and fitted for determination of the EC50 values using the Assay Explorer software (Accelrys).

T1 sequence (O95271 1023-1327): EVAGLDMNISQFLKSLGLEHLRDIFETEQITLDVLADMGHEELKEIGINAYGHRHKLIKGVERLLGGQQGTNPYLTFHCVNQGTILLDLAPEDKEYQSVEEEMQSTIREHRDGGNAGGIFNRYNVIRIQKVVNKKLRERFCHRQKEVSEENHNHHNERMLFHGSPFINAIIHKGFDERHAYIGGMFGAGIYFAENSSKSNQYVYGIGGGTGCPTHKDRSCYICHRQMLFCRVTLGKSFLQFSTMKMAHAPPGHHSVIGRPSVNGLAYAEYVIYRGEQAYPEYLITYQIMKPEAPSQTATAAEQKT

CC(C)(OCCO)c1ccc(-c2nn3cccc3c(=O)[nH]2)cc1 [Compound A15, 2-{4-[1-(2-hydroxy-ethoxy)-1-methyl-ethyl]-phenyl}-3H-pyrrolo[2,1-f][1,2,4]triazin-4-one]
IC50 [1]: < 300 nM
IC50 (His-tagged Parp-1): 3000 to 50000 nM
EC50 (Tankyrases): 300 to 3000 nM

CC(C)(O)c1ccc(-c2nn3cccc3c(=O)[nH]2)cc1 [Compound A5, 2-[4-(1-hydroxy-1-methyl-ethyl)-phenyl]-3H-pyrrolo[2,1-f][1,2,4]triazin-4-one]
IC50 [1]: < 300 nM
IC50 (His-tagged Parp-1): 3000 to 50000 nM
EC50 (Tankyrases): 300 to 3000 nM

CCC(O)(CC)c1ccc(-c2nn3cccc3c(=O)[nH]2)cc1 [Compound A14, 2-[4-(1-ethyl-1-hydroxy-propyl)-phenyl]-3H-pyrrolo[2,1-f][1,2,4]triazin-4-one]
IC50 [1]: < 300 nM
IC50 (His-tagged Parp-1): 3000 to 50000 nM
EC50 (Tankyrases): < 300 nM

CC(C)(O)c1ccc(-c2nn3cc(F)cc3c(=O)[nH]2)cc1 [Compound A12, 6-fluoro-2-[4-(1-hydroxy-1-methyl-ethyl)phenyl]-3H-pyrrolo[2,1-f][1,2,4]triazin-4-one]
IC50 [1]: < 300 nM
IC50 (His-tagged Parp-1): 300 to 3000 nM
EC50 (Tankyrases): 300 to 3000 nM

CC(C)(O)c1ccc(-c2nn3cc(Cl)cc3c(=O)[nH]2)cc1 [Compound A18, 6-chloro-2-[4-(1-hydroxy-1-methyl-ethyl)-phenyl]-3H-pyrrolo[2,1-f][1,2,4]triazin-4-one]
IC50 [1]: < 300 nM
IC50 (His-tagged Parp-1): 3000 to 50000 nM
EC50 (Tankyrases): 300 to 3000 nM

O=c1[nH]c(-c2ccc(C3(O)CCCC3)cc2)nn2cccc12 [Compound A21, 2-[4-(1-hydroxy-cyclopentyl)-phenyl]-3H-pyrrolo[2,1-f][1,2,4]-triazin-4-one]
IC50 [1]: < 300 nM
IC50 (His-tagged Parp-1): 3000 to 50000 nM
EC50 (Tankyrases): 300 to 3000 nM

Cc1cc2c(=O)[nH]c(-c3ccc(C(C)(C)O)cc3)nn2c1 [Compound A11, 2-[4-(1-hydroxy-1-methyl-ethyl)phenyl]-6-methyl-3H-pyrrolo[2,1-f][1,2,4]triazin-4-one]
IC50 [1]: < 300 nM
IC50 (His-tagged Parp-1): 300 to 3000 nM
EC50 (Tankyrases): 300 to 3000 nM

Cn1cc(-c2ccc(-c3nn4cccc4c(=O)[nH]3)cc2)cn1 [Compound A7, 2-[4-(1-methyl-1H-pyrazol-4-yl)-phenyl]-3H-pyrrolo[2,1-f][1,2,4]triazin-4-one]
IC50 [1]: < 300 nM
IC50 (His-tagged Parp-1): 3000 to 50000 nM
EC50 (Tankyrases): 300 to 3000 nM

Cc1cc2c(=O)[nH]c(-c3ccc(-c4cnn(C)c4)cc3)nn2c1 [Compound A13, 6-methyl-2-[4-(1-methylpyrazol-4-yl)phenyl]-3H-pyrrolo-[2,1-f][1,2,4]triazin-4-one]
IC50 [1]: < 300 nM
IC50 (His-tagged Parp-1): 3000 to 50000 nM
EC50 (Tankyrases): 300 to 3000 nM
